The record followed here is patent US8034812B2, “Imidazopyridazine derivative having kinase inhibitory activity and pharmaceutical agent thereof” (Takeda Pharmaceutical Company Limited, priority 2006, dated 2011).

The target in test [1] is T1, VEGFR2 intracellular domain protein (Homo sapiens, UniProt P35968).
T1 construct: made in house; host or cells: SF-21 insect cells, recombinant baculovirus BAC-VEGFR2
Description: Determination of vascular endothelial growth factor receptor 2 (VEGFR2) kinase inhibitory activity (AlphaScreen). The class given is biochemical. Particulars: read-out: VEGFR2 kinase inhibitory rate. As to the method:
Human vascular endothelial growth factor receptor 2 (hereinafter to be referred to as VEGFR2) gene was cloned by PCR using cDNA Libraries Human Placenta (Clontech) as a template. The primer used for PCR was prepared from base sequence (Genbank Accession AF035121) information of VEGFR2 gene by adding a base sequence encoding flag peptide and a recognition sequence of the restriction enzyme to a base sequence (2671-4374 of Genbank Accession AF035121) encoding the VEGFR2 intracellular domain region, so that the protein contains an N-terminal Flag tag. The primer base sequence is shown below.
SF-21 cells were sown at 1×10^6 cells/mL to Sf-900II SFM medium (1 L, Invitrogen) containing 10% fetal bovine serum (trace), 50 mg/L Gentamicin (Invitrogen) and 0.1% Pluronic F-68 (Invitrogen), and shaking culture was performed using a 2 L volume Erlenmeyer flask at 27° C., 100 rpm. After culturing for 24 hrs, recombinant baculovirus BAC-VEGFR2 (13.4 mL) was added to the mixture, and the mixture was further cultured for 3 days. The culture medium was centrifuged at 2,000 rpm for 5 min to give virus-infected cells. The infected cells were washed with a phosphate buffered saline (Invitrogen), centrifuged under the same conditions, and the cells were preserved at −80° C. The cryopreserved cells were thawed in ice, suspended in buffer A (50 mM Tris buffer (30 mL, pH 7.4) containing 20% glycerol, 0.15 M NaCl) supplemented with Complete Protease Inhibitor (Boehringer), and ruptured 3 times with a Polytron homogenizer (Kinematica) at 20,000 rpm for 30 sec. The ruptured medium was clarified by centrifugation at 40,000 rpm for 30 min and filtered with a 0.45 μm filter. The filtrate was passed through a column packed with Anti-FLAG M2 Affinity Gel (4 mL, Sigma) at a flow rate of about 0.5 mL/min. The column was washed with buffer A, and eluted with buffer A containing 100 μg/mL of FLAG peptide. The eluate was concentrated with Vivaspin 20 (Vivascience) having a molecular weight cut off of 30K. The buffer of this concentrate was exchanged using NAP™ 25 column (Amersham Bioscience) equilibrated with buffer A. The fractions containing intracellular domain protein of VEGFR2 were collected, glycerol was added to the final concentration of 50% and cryopreserved at −80° C.
A test compound dissolved in dimethyl sulfoxide (DMSO) was diluted with a buffer (50 mM Tris-HCl (pH 7.5), 5 mM MgCl2, 5 mM MnCl2, 2 mM dithiothreitol, 0.01% Tween-20). To this compound solution (5 μL) was added a buffer (10 μL) containing 50 ng/mL of VEGFR2 intracellular domain protein and 250 ng/mL of biotin labeled polypeptide biotinyl-poly-Glu:Tyr (4:1) (CIS bio International). To the obtained mixture was added a buffer (10 μL) containing ATP (25 μM), the mixture was allowed to react at 25° C. for 5 min and the reaction was quenched with 25 μL of a stop solution (100 mM EDTA disodium salt, 62.5 mM HEPES buffer (pH 7.4), 250 mM NaCl, 0.1% bovine serum albumin, 10 μg/mL AlphaScreen assay streptavidin donor beads (Streptavidin Donor beads: PerkinElmer), 10 μg/mL AlphaScreen assay anti-phosphotyrosine recognition antibody PY-100 binding acceptor beads (Anti-phosphotyrosine (P-Tyr-100) Acceptor beads: PerkinElmer)). The reaction solution was allowed to stand at 25° C. for 16 hrs, and the wells were counted using a plate reader Fusion™ (PerkinElmer). The kinase inhibitory rate (%) of the test compound was calculated by the following formula: Inhibitory rate(%)=(1−(count of test compound−blank)÷(control−blank))×100

Test [2] relates to Human umbilical vein-derived vascular endothelial cells (HUVEC). As to the kind of experiment: Vascular endothelial cell growth inhibitory test (VEGF-stimulated HUVEC, XTT). The class given is cell-based. Particulars: 120 h, 5 days of culture. As to the method: To be specific, HUVEC was suspended in a vascular endothelial cell medium containing the aforementioned 5% bovine fetal serum and plated on a 96 well flat bottom plate by 50 μL (3000 cells) each well. After culture overnight, various concentrations of the test substance and 120 ng/mL of vascular endothelial growth factor (VEGF) were dissolved in a vascular endothelial cell medium containing 5% bovine fetal serum and added to each well by 50 μL. After 5 days of culture, a XTT reagent (Wako Pure Chemical Industries, Ltd.) was added to each well by 10 μL, and the mixture was reacted in an incubator at 37° C., 5% carbon dioxide for 2-3 hr. The absorbance at 450 nm was measured by a microtiter plate reader and the cell growth inhibitory activity was determined.

Test [3] addresses T2, PDGFRα intracellular domain protein (Homo sapiens, UniProt P16234).
T2 construct: 125 ng/ml of PDGFRα intracellular domain protein (UPSTATE); purchased UPSTATE
As to the kind of experiment: Determination of platelet-derived growth factor receptor α (PDGFRα) kinase inhibitory activity (AlphaScreen). It counts as biochemical. As to the method:
(§1) A test compound dissolved in dimethyl sulfoxide (DMSO) was diluted with a buffer (50 mM Tris-HCl (pH 7.5), 5 mM MgCl2, 5 mM MnCl2, 2 mM dithiothreitol, 0.01% Tween-20). To this compound solution (5 μL) was added a buffer (10 μL) containing 125 ng/ml of PDGFRα intracellular domain protein (UPSTATE) and 250 ng/mL of biotin labeled polypeptide biotinyl-poly-Glu:Tyr (4:1) (CIS bio International). At 5 min after mixing kinase enzyme and the compound and biotin labeled polypeptide, to the obtained mixture was added a buffer (10 μL) containing ATP (25 μM), the mixture was allowed to react at 25° C. for 30 min and the reaction was quenched with 25 μL of a stop solution (100 mM EDTA disodium salt, 62.5 mM HEPES buffer (pH 7.4), 250 mM NaCl, 0.1% bovine serum albumin, 10 μg/mL AlphaScreen assay streptavidin donor beads (Streptavidin Donor beads: PerkinElmer), 10 μg/mL AlphaScreen assay anti-phosphotyrosine recognition antibody PT-66 binding acceptor beads (Anti-phosphotyrosine (P-Tyr-66) Acceptor beads: PerkinElmer)). The reaction solution was allowed to stand at 25° C. for 16 hrs, and the wells were counted using a plate reader Fusion™ (PerkinElmer). The kinase inhibitory rate (%) of the test compound was calculated by the following formula: Inhibitory rate(%)=(1−(count of test compound−blank)÷(control−blank))×100
(§2) The count of the solution reacted without addition of the compound was used as a “control”, and the count of the solution without the compound and ATP was used as a “blank”.

For test [4], the target named is T3, PDGFRβ intracellular domain protein (Homo sapiens, UniProt P09619).
T3 construct: 125 ng/ml of PDGFRβ intracellular domain protein (UPSTATE); purchased UPSTATE
Description: Determination of platelet-derived growth factor receptor β (PDGFRβ) kinase inhibitory activity (AlphaScreen). The class given is biochemical. As to the method: as §1, with “of PDGFRβ” for “of PDGFRα”, “Donor Beads:” for “Donor beads:”, “test compound[…])÷(control−blank))×100” for “test compound−blank)÷(control−blank))×100”
as §2

Some results are limits rather than exact numbers.

T2 sequence (P16234 550-1089 limits assumed): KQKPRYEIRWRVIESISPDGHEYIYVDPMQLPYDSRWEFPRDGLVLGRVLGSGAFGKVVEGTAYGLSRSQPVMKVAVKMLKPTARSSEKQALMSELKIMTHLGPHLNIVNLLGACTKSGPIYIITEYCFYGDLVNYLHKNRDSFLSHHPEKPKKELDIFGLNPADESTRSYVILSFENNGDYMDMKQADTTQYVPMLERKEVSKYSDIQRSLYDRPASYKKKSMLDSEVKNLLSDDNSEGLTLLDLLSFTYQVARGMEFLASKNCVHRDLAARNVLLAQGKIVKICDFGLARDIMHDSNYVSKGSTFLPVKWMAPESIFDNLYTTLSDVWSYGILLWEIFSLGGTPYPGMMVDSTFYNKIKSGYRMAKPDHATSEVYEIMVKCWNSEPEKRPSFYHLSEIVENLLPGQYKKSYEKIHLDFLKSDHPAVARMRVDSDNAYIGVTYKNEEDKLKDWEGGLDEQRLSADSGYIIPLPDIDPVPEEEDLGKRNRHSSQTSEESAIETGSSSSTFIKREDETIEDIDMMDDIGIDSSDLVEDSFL
T3 sequence (P09619 554-1106 limits assumed): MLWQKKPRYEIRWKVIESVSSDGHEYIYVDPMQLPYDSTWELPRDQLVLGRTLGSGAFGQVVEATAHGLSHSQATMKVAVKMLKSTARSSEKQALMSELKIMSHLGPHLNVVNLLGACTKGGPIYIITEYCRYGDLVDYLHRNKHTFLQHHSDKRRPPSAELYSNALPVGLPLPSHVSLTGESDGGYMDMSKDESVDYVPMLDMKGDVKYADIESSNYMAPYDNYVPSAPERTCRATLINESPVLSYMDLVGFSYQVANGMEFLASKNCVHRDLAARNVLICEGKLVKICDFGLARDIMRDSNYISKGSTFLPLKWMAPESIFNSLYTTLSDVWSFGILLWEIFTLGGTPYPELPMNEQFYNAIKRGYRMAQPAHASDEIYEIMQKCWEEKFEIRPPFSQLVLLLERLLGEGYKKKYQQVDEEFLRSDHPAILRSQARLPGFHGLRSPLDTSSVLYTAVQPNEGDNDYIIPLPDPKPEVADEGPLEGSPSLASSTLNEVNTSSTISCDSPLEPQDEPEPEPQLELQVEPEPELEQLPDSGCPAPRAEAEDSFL
T1 sequence (P35968 786-1356 limits assumed): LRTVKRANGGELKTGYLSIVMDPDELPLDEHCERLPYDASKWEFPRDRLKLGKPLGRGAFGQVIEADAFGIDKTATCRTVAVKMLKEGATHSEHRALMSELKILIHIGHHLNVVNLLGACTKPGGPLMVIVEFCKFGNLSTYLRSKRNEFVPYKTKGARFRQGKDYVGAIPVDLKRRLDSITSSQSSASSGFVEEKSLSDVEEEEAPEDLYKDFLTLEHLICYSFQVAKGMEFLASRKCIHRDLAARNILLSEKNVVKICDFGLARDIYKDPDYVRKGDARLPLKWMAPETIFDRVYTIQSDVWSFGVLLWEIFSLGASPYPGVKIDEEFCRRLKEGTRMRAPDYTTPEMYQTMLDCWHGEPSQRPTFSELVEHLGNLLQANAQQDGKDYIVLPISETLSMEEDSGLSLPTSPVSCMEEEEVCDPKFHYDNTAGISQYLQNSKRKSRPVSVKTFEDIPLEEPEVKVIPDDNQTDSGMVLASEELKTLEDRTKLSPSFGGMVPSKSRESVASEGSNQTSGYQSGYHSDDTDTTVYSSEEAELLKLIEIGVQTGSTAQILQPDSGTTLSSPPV

`Cc1nc(C)c(C(=O)Nc2cc(Oc3ccc4nc(NC(=O)C5CC5)cn4n3)ccc2F)o1` [Example 289, N-[5-({2-[(cyclopropylcarbonyl)amino]imidazo[1,2-b]pyridazin-6-yl}oxy)-2-fluorophenyl]-2,4-dimethyl-1,3-oxazole-5-carboxamide]: in test [1], the inhibition at 1 µM is at least 90%. Also, the IC50 in test [2], in test [3] and in test [4] was at most 500 nM in each case.
On to `Cc1nn(C)cc1C(=O)Nc1cc(Oc2ccc3nc(NC(=O)C4CC4)cn3n2)ccc1F` [Example 173, N-[5-({2-[(cyclopropylcarbonyl)amino]imidazo[1,2-b]pyridazin-6-yl}oxy)-2-fluorophenyl]-1,3-dimethyl-1H-pyrazole-4-carboxamide], for which the inhibition at 1 µM in test [1] was at least 90%. Moreover, the IC50 in test [2], in test [3] and in test [4] was at most 500 nM in each case.
Take `CC#CC(=O)Nc1cc(Oc2ccc3nc(NC(=O)C4CC4)cn3n2)ccc1C` [Example 241, N-{6-[3-(but-2-ynoylamino)-4-methylphenoxy]imidazo[1,2-b]pyridazin-2-yl}cyclopropanecarboxamide]: the inhibition at 1 µM in test [1] was at least 90%. The IC50 in test [2], in test [3] and in test [4] was at most 500 nM each time.
With `O=C(Nc1cccc(Oc2ccc3nc(NC(=O)C4CC4)cn3n2)c1)c1ccccc1` [Example 165, N-[3-({2-[(cyclopropylcarbonyl)amino]imidazo[1,2-b]pyridazin-6-yl}oxy)phenyl]benzamide], the inhibition at 1 µM in test [1] is at least 90%. Also, the IC50 in test [2], in test [3] and in test [4] was at most 500 nM in each case.
Regarding `CCn1cc(C(=O)Nc2cc(Oc3ccc4nc(NC(=O)C5CC5)cn4n3)ccc2F)c(C)n1` [Example 161, N-[5-({2-[(cyclopropylcarbonyl)amino]imidazo[1,2-b]pyridazin-6-yl}oxy)-2-fluorophenyl]-1-ethyl-3-methyl-1H-pyrazole-4-carboxamide], in test [1], the inhibition at 1 µM is at least 90%. Further, the 50% inhibitory concentration (IC50) in test [2], in test [3] and in test [4] was at most 500 nM throughout.
Turning to `CCn1nccc1C(=O)Nc1cc(Oc2ccc3nc(NC(=O)C4CC4)cn3n2)ccc1F` [Example 174, N-[5-({2-[(cyclopropylcarbonyl)amino]imidazo[1,2-b]pyridazin-6-yl}oxy)-2-fluorophenyl]-1-ethyl-1H-pyrazole-5-carboxamide], the inhibition at 1 µM in test [1] is at least 90%. Moreover, the IC50 in test [2], in test [3] and in test [4] was at most 500 nM in each case.
In the case of `CCc1cc(C(=O)Nc2cc(Oc3ccc4nc(NC(=O)C5CC5)cn4n3)ccc2Cl)n(C)n1` [Example 247, N-[2-chloro-5-({2-[(cyclopropylcarbonyl)amino]imidazo[1,2-b]pyridazin-6-yl}oxy)phenyl]-3-ethyl-1-methyl-1H-pyrazole-5-carboxamide], the inhibition at 1 µM in test [1] is at least 90%. The IC50 in test [2], in test [3] and in test [4] was at most 500 nM throughout.
Take `COc1cc(C(=O)Nc2cc(Oc3ccc4nc(NC(=O)C5CC5)cn4n3)ccc2F)n(C)n1` [Example 180, N-[5-({2-[(cyclopropylcarbonyl)amino]imidazo[1,2-b]pyridazin-6-yl}oxy)-2-fluorophenyl]-3-methoxy-1-methyl-1H-pyrazole-5-carboxamide]: in test [1], the inhibition at 1 µM was at least 90%. For the same compound, the half-maximal inhibitory concentration (IC50) in test [2], in test [3] and in test [4] was at most 500 nM throughout.
`Cc1cc(C(=O)Nc2cccc(Nc3ccc4nc(NC(=O)C5CC5)cn4n3)c2)n(C)n1` [Example 317, N-[3-({2-[(cyclopropylcarbonyl)amino]imidazo[1,2-b]pyridazin-6-yl}amino)phenyl]-1,3-dimethyl-1H-pyrazole-5-carboxamide]: in test [1], the inhibition at 1 µM is at least 90%. The IC50 in test [2], in test [3] and in test [4] was at most 500 nM each time.
Turning to `Cn1nccc1C(=O)Nc1cc(Oc2ccc3nc(NC(=O)C4CC4)cn3n2)ccc1F` [Example 287, N-[5-({2-[(cyclopropylcarbonyl)amino]imidazo[1,2-b]pyridazin-6-yl}oxy)-2-fluorophenyl]-1-methyl-1H-pyrazole-5-carboxamide], the inhibition at 1 µM in test [1] is at least 90%. Moreover, the IC50 in test [2], in test [3] and in test [4] was at most 500 nM each time.
